In PubChem BioAssay (NCI):
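A five-concentration, 48-hour dose response in 96-well plates underlies each endpoint, interpolated linearly between surrounding concentrations. TGI: total growth inhibition.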

How the values were obtained:
Assay in all cases: inhibition of tumour cell growth, NCI panel, 48 h
EKVX NSCLC = system: EKVX NSCLC
UO-31 renal = system: UO-31 renal
SK-MEL-28 melanoma = system: SK-MEL-28 melanoma
HCC-2998 colon = system: HCC-2998 colon
NCI-H23 lung = system: NCI-H23 lung
HCT-15 colon = system: HCT-15 colon
TK-10 renal = system: TK-10 renal
SF-295 CNS = system: SF-295 CNS
SNB-75 CNS = system: SNB-75 CNS
LOX IMVI melanoma = system: LOX IMVI melanoma
SNB-19 CNS = system: SNB-19 CNS
BT-549 breast = system: BT-549 breast
SN12C renal = system: SN12C renal
CCRF-CEM leukemia = system: CCRF-CEM leukemia
COLO 205 colon = system: COLO 205 colon
HL-60(TB) leukemia = system: HL-60(TB) leukemia
MDA-MB-435 = system: MDA-MB-435
K-562 leukemia = system: K-562 leukemia
MALME-3M melanoma = system: MALME-3M melanoma
A498 renal = system: A498 renal
ACHN renal = system: ACHN renal
SF-268 CNS = system: SF-268 CNS
KM12 colon = system: KM12 colon
MDA-N = system: MDA-N
SR leukemia = system: SR leukemia
SK-OV-3 ovarian = system: SK-OV-3 ovarian
NCI-H226 lung = system: NCI-H226 lung
CAKI-1 renal = system: CAKI-1 renal
SW-620 colon = system: SW-620 colon
NCI-H522 lung = system: NCI-H522 lung
DU-145 prostate = system: DU-145 prostate
IGROV1 ovarian = system: IGROV1 ovarian
OVCAR-5 ovarian = system: OVCAR-5 ovarian
UACC-62 melanoma = system: UACC-62 melanoma
HCT-116 colon = system: HCT-116 colon
U251 CNS = system: U251 CNS
SK-MEL-5 melanoma = system: SK-MEL-5 melanoma
MDA-MB-231 breast = system: MDA-MB-231 breast
M14 melanoma = system: M14 melanoma
OVCAR-4 ovarian = system: OVCAR-4 ovarian
RXF 393 renal = system: RXF 393 renal
NCI/ADR-RES ovarian = system: NCI/ADR-RES ovarian
MCF7 breast = system: MCF7 breast
HS 578T breast = system: HS 578T breast
MOLT-4 leukemia = system: MOLT-4 leukemia
HT29 colon = system: HT29 colon
PC-3 prostate = system: PC-3 prostate
NCI-H460 lung = system: NCI-H460 lung
OVCAR-8 ovarian = system: OVCAR-8 ovarian
A549 NSCLC = system: A549 NSCLC
OVCAR-3 ovarian = system: OVCAR-3 ovarian
UACC-257 melanoma = system: UACC-257 melanoma
786-0 renal = system: 786-0 renal
HOP-62 NSCLC = system: HOP-62 NSCLC
T-47D breast = system: T-47D breast
HOP-92 NSCLC = system: HOP-92 NSCLC

Work on `COc1ccc2c(c1)/C(=C(\C(Cl)=C(\Cl)N1CCCCC1)[N+](=O)[O-])N2` yielded a TGI (EKVX NSCLC) of over 100 µM, a TGI (UO-31 renal) of over 100 µM and a TGI (SK-MEL-28 melanoma) of over 100 µM. The TGI (HCC-2998 colon) was over 100 µM, the TGI (NCI-H23 lung) was over 100 µM and the TGI (HCT-15 colon) was over 100 µM. It also gave a TGI (TK-10 renal) of over 100 µM, a TGI (SF-295 CNS) of over 100 µM and a TGI (SNB-75 CNS) of over 100 µM. It also gave a TGI (LOX IMVI melanoma) of over 100 µM, a TGI (SNB-19 CNS) of over 100 µM and a TGI (BT-549 breast) of over 100 µM. The TGI (SN12C renal) was over 100 µM, the TGI (CCRF-CEM leukemia) was over 100 µM and the TGI (COLO 205 colon) was over 100 µM. It also gave a TGI (HL-60(TB) leukemia) of over 100 µM, a TGI (MDA-MB-435) of over 100 µM and a TGI (K-562 leukemia) of over 100 µM. For the same compound, the TGI (MALME-3M melanoma) was over 100 µM, the TGI (A498 renal) was over 100 µM and the TGI (ACHN renal) was over 100 µM. For the same compound, the TGI (SF-268 CNS) was over 100 µM, the TGI (KM12 colon) was over 100 µM and the TGI (MDA-N) was over 100 µM. The TGI (SR leukemia) was over 100 µM, the TGI (SK-OV-3 ovarian) was over 100 µM and the TGI (NCI-H226 lung) was over 100 µM. It also gave a TGI (CAKI-1 renal) of over 100 µM, a TGI (SW-620 colon) of over 100 µM and a TGI (NCI-H522 lung) of over 100 µM. The TGI (DU-145 prostate) was over 100 µM, the TGI (IGROV1 ovarian) was over 100 µM and the TGI (OVCAR-5 ovarian) was over 100 µM. For the same compound, the TGI (UACC-62 melanoma) was over 100 µM, the TGI (HCT-116 colon) was over 100 µM and the TGI (U251 CNS) was over 100 µM. It also gave a TGI (SK-MEL-5 melanoma) of over 100 µM, a TGI (MDA-MB-231 breast) of over 100 µM and a TGI (M14 melanoma) of over 100 µM. For the same compound, the TGI (OVCAR-4 ovarian) was over 100 µM, the TGI (RXF 393 renal) was over 100 µM and the TGI (NCI/ADR-RES ovarian) was over 100 µM. The TGI (MCF7 breast) was over 100 µM, the TGI (HS 578T breast) was over 100 µM and the TGI (MOLT-4 leukemia) was over 100 µM. It also gave a TGI (HT29 colon) of over 100 µM, a TGI (PC-3 prostate) of over 100 µM and a TGI (NCI-H460 lung) of over 100 µM. The TGI (OVCAR-8 ovarian) was over 100 µM, the TGI (A549 NSCLC) was over 100 µM and the TGI (OVCAR-3 ovarian) was over 100 µM. For the same compound, the TGI (UACC-257 melanoma) was over 100 µM, the TGI (786-0 renal) was over 100 µM and the TGI (HOP-62 NSCLC) was over 100 µM. For the same compound, the TGI (T-47D breast) was over 100 µM and the TGI (HOP-92 NSCLC) was over 100 µM.
`COc1ccc2c(c1)/C(=C(\C(Cl)=C(Cl)Cl)[N+](=O)[O-])N2` gave a TGI (EKVX NSCLC) of over 100 µM, a TGI (UO-31 renal) of over 100 µM and a TGI (SK-MEL-28 melanoma) of over 100 µM. The TGI (HCC-2998 colon) was over 100 µM, the TGI (NCI-H23 lung) was over 100 µM and the TGI (HCT-15 colon) was over 100 µM. For the same compound, the TGI (TK-10 renal) was over 100 µM, the TGI (SF-295 CNS) was over 100 µM and the TGI (SNB-75 CNS) was over 100 µM. For the same compound, the TGI (LOX IMVI melanoma) was over 100 µM, the TGI (SNB-19 CNS) was over 100 µM and the TGI (BT-549 breast) was over 100 µM. The TGI (SN12C renal) was over 100 µM, the TGI (CCRF-CEM leukemia) was over 100 µM and the TGI (COLO 205 colon) was over 100 µM. The TGI (HL-60(TB) leukemia) was over 100 µM, the TGI (MDA-MB-435) was over 100 µM and the TGI (K-562 leukemia) was over 100 µM. It also gave a TGI (MALME-3M melanoma) of over 100 µM, a TGI (A498 renal) of over 100 µM and a TGI (ACHN renal) of over 100 µM. It also gave a TGI (SF-268 CNS) of over 100 µM, a TGI (KM12 colon) of over 100 µM and a TGI (MDA-N) of over 100 µM. The TGI (SR leukemia) was 49.3 µM, the TGI (SK-OV-3 ovarian) was over 100 µM and the TGI (NCI-H226 lung) was 85.7 µM. It also gave a TGI (CAKI-1 renal) of over 100 µM, a TGI (SW-620 colon) of over 100 µM and a TGI (NCI-H522 lung) of 87 µM. It also gave a TGI (DU-145 prostate) of over 100 µM, a TGI (IGROV1 ovarian) of over 100 µM and a TGI (OVCAR-5 ovarian) of over 100 µM. It also gave a TGI (UACC-62 melanoma) of over 100 µM, a TGI (HCT-116 colon) of over 100 µM and a TGI (U251 CNS) of over 100 µM. The TGI (SK-MEL-5 melanoma) was over 100 µM, the TGI (MDA-MB-231 breast) was over 100 µM and the TGI (M14 melanoma) was over 100 µM. The TGI (OVCAR-4 ovarian) was over 100 µM, the TGI (RXF 393 renal) was over 100 µM and the TGI (NCI/ADR-RES ovarian) was over 100 µM. The TGI (MCF7 breast) was over 100 µM, the TGI (HS 578T breast) was over 100 µM and the TGI (MOLT-4 leukemia) was 97.1 µM. The TGI (HT29 colon) was over 100 µM, the TGI (PC-3 prostate) was over 100 µM and the TGI (NCI-H460 lung) was over 100 µM. For the same compound, the TGI (OVCAR-8 ovarian) was over 100 µM, the TGI (A549 NSCLC) was over 100 µM and the TGI (OVCAR-3 ovarian) was over 100 µM. For the same compound, the TGI (UACC-257 melanoma) was over 100 µM, the TGI (786-0 renal) was over 100 µM and the TGI (HOP-62 NSCLC) was over 100 µM. It also gave a TGI (T-47D breast) of over 100 µM and a TGI (HOP-92 NSCLC) of over 100 µM.
